Laboratory results taken from patent US6365609B1, “Substituted 3,3-diamino-2-propenenitriles, their preparation and use” (Novo Nordisk A/S, priority 1998, dated 2002).

System: not given
Conditions: not given

First: CC(NC(Nc1ccc(Cl)cc1)=C(C#N)S(C)(=O)=O)C(C)(C)C (centres unmarked) [Example 34, 3-(4-Chlorophenylamino)-2-methylsulfonyl-3-(1,2,2-trimethylpropylamino)-acrylonitrile]
Second: CC(NC(Nc1cc(Cl)cc(Cl)c1)=C(C#N)S(=O)(=O)c1ccc(Cl)cc1)C(C)(C)C (centres unmarked) [Example 7, 2-(4-Chlorophenylsulfonyl)-3-(3,5-dichlorophenylamino)-3-(1,2,2-trimethylpropylamino)-2-propenenitrile]
The melting point of the first is lower: 160.5 to 161.5 °C for the first, 163 to 169 °C for the second.

`C[C@H](NC(Nc1cc(C(F)(F)F)cc(C(F)(F)F)c1)=C(C#N)S(C)(=O)=O)C(C)(C)C` [Example 22, (S)-3-[3,5-bis(trifluoromethyl)phenylamino]-2-methanesulfonyl-3-(1,2,2-trimethylpropylamino)-2-propenenitrile] and `C[C@@H](NC(Nc1cc(C(F)(F)F)cc(C(F)(F)F)c1)=C(C#N)S(C)(=O)=O)C(C)(C)C` [Example 21, (R)-3-[3,5-bis(trifluoromethyl)phenylamino]-2-methanesulfonyl-3-(1,2,2-trimethylpropylamino)-2-propenenitrile] cannot be ordered by melting point: 180.5 to 181.5 °C for the first, 181 to 181.5 °C for the second.

First: CCC(C)(C)NC(Nc1ccc2ncsc2c1)=C(C#N)S(C)(=O)=O [Example 35, 3-(Benzothiazol-6-ylamino)-3-(1,1-dimethyl-propylamino)-2-methylsulfonyl-propenenitrile]
Second: CCC(C)(C)NC(Nc1ccc2c(c1)OCO2)=C(C#N)S(=O)(=O)c1ccc(Cl)cc1 [Example 27, 3-(Benzo[1,3]dioxol-5-ylamino)-3-(1,1-dimethyl-propylamino)-2-(4-chloro-phenylsulfonyl)-propenenitrile]
The melting point of the first is lower: 112 to 114 °C for the first, 169 to 170 °C for the second.

First: N#CC(=C(Nc1ccc2c(c1)OCO2)NC1CCC1)S(=O)(=O)c1ccc(Cl)cc1 [Example 28, 3-(Benzo[1,3]dioxol-5-ylamino)-3-cyclobutylamino-2-(4-chloro-phenylsulfonyl)-propenenitrile]
Second: COc1cc(NC(NC2CCC2)=C(C#N)S(=O)(=O)c2ccc(Cl)cc2)cc(OC)c1 [Example 24, 2-(4-Chlorophenylsulfonyl)-3-(3,5-dimethoxyphenylamino)3cyclobutylamino-2-propenenitrile]
The melting point of the first is higher: 189.5 °C for the first, 163.5 to 164.5 °C for the second.

First: CCC(C)(C)NC(Nc1ccc2c(c1)OCO2)=C(C#N)C(=O)C(C)(C)C [Example 36, 3-(Benzo[1,3]dioxol-5-ylamino)-2-(2,2-dimethyl-propionyl)-3-(1,1-dimethyl-propylamino)-propenenitrile]
Second: CCC(C)(C)NC(Nc1cc(OC)cc(OC)c1)=C(C#N)S(=O)(=O)c1ccc(Cl)cc1 [Example 23, 2-(4-Chlorophenylsulfonyl)-3-(3,5-dimethoxyphenylamino)-3-(1,1-dimethylpropylamino)-2-propenenitrile]
The melting point of the first is lower: 161 to 165 °C for the first, 189 to 190 °C for the second.

First: CC(C)NC(Nc1cc(C(F)(F)F)cc(C(F)(F)F)c1)=C(C#N)S(=O)(=O)c1ccc(Cl)cc1 [Example 3, 3-[3,5-Bis(trifluoromethyl)phenylamino]-2-(4-chlorophenylsulfonyl)-3-isopropylamino-2-propenenitrile]
Second: CC(NC(Nc1cc(C(F)(F)F)cc(C(F)(F)F)c1)=C(C#N)S(=O)(=O)c1ccc(Cl)cc1)C(C)(C)C (centres unmarked) [Example 1, 3-[3,5-bis(trifluoromethyl)phenylamino]-2-(4-chlorophenylsulfonyl)-3-(1,2,2-trimethylpropylamino)-2-propenenitrile]
The melting point of the first is higher: 197 to 198.5 °C for the first, 155.5 to 158.5 °C for the second.

Compared with `CCC(C)(C)NC(Nc1cc(C(F)(F)F)cc(C(F)(F)F)c1)=C(C#N)S(=O)(=O)c1ccc(Cl)cc1` [Example 17, 3-[3,5-Bis(trifluoromethyl)phenylamino]-2-(4-chlorophenylsulfonyl)-3-(1,1-dimethylpropylamino)-2-propenenitrile], `C[C@@H](NC(Nc1cc(C(F)(F)F)cc(C(F)(F)F)c1)=C(C#N)S(=O)(=O)c1ccc(Cl)cc1)C(C)(C)C` [Example 19, (R)-3-[3,5-bis(trifluoromethyl)phenylamino]-2-(4-chlorophenylsulfonyl)-3-(1,2,2-trimethylpropylamino)-2-propenenitrile] is lower in melting point: 205 to 207 °C for the first, 164 to 165 °C for the second.

First: CCC(C)NC(Nc1cc(Cl)cc(Cl)c1)=C(C#N)S(=O)(=O)c1ccc(Cl)cc1 (centres unmarked) [Example 31, 3-sec-Butylamino-2-(4-chlorophenylsulfonyl)-3-(3,5-dichlorophenylamino)-2-propenenitrile]
Second: COc1cc(NC(NC(C)C(C)(C)C)=C(C#N)S(=O)(=O)c2ccc(Cl)cc2)cc(OC)c1 (centres unmarked) [Example 10, 2-(4-Chlorophenylsulfonyl)-3-(3,5-dimethoxyphenylamino)-3-(1,2,2-trimethylpropylamino)-2-propenenitrile]
The melting point of the first is lower: 150 to 152 °C for the first, 177.5 to 179 °C for the second.

First: CC(NC(=C(C#N)S(=O)(=O)c1ccc(Cl)cc1)N(C)c1cc(C(F)(F)F)cc(C(F)(F)F)c1)C(C)(C)C (centres unmarked) [Example 11, 3-[N-(3,5-bis(trifluoromethyl)phenyl)-N-methylamino]-2-(4-chlorophenylsulfonyl)-3-(1,2,2-trimethylpropylamino)-2-propenenitrile]
Second: CCCNC(Nc1cc(C(F)(F)F)cc(C(F)(F)F)c1)=C(C#N)S(=O)(=O)c1ccc(Cl)cc1 [Example 5, 3-[3,5-Bis(trifluoromethyl)phenylamino]-2-(4-chlorophenylsulfonyl)-3-propylamino2-propenenitrile]
The melting point of the first is lower: 151.5 to 154 °C for the first, 196.5 to 198.5 °C for the second.

First: CC(NC(Nc1cc(C(F)(F)F)cc(C(F)(F)F)c1)=C(C#N)S(C)(=O)=O)C(C)(C)C (centres unmarked) [Example 9, 3-(3,5-Bis(trifluoromethyl)phenylamino)-2-methylsulfonyl-3-(1,2,2-trimethylpropylamino)-propenenitrile]
Second: CC(C)NC(Nc1cc(C(F)(F)F)cc(C(F)(F)F)c1)=C(C#N)S(C)(=O)=O [Example 20, 3-(3,5-Bis(trifluoromethyl)phenylamino)-3-isopropylamino-2-methylsulfonyl-propenenitrile]
The melting point of the first is lower: 184.5 to 188.5 °C for the first, 188.5 to 191 °C for the second.

First: CC(NC(Nc1cc(F)cc(C(F)(F)F)c1)=C(C#N)S(C)(=O)=O)C(C)(C)C (centres unmarked) [Example 33, 3-(3-Fluoro-5trifluoromethyl-phenylamino)-2-methylsulfonyl-3-(1,2,2-trimethylpropylamino)-propenenitrile]
Second: N#CC(=C(Nc1cc(C(F)(F)F)cc(C(F)(F)F)c1)NC1CCC1)S(=O)(=O)c1ccc(Cl)cc1 [Example 4, 3-[3,5-Bis(trifluoromethyl)phenylamino]-2-(4-chlorophenylsulfonyl)-3-cyclobutylamino-2-propenenitrile]
The melting point of the first is lower: 183 to 185 °C for the first, 190.5 to 193 °C for the second.

`N#CC(=C(Nc1cc(C(F)(F)F)cc(C(F)(F)F)c1)NC1CCCC1)S(=O)(=O)c1ccc(Cl)cc1` [Example 2, 3-[3,5-Bis(trifluoromethyl)phenylamino]-2-(4-chlorophenylsulfonyl)-3-cyclopentylamino2-propenenitrile] gave a melting point of 199 to 200 °C.

Target: KATP-channels on pancreatic beta-cells (Homo sapiens, UniProt Q09428)
Conditions: by activation of KATP-channels; cited from earlier work

Sequence of KATP-channels on pancreatic beta-cells (Q09428 whole entry): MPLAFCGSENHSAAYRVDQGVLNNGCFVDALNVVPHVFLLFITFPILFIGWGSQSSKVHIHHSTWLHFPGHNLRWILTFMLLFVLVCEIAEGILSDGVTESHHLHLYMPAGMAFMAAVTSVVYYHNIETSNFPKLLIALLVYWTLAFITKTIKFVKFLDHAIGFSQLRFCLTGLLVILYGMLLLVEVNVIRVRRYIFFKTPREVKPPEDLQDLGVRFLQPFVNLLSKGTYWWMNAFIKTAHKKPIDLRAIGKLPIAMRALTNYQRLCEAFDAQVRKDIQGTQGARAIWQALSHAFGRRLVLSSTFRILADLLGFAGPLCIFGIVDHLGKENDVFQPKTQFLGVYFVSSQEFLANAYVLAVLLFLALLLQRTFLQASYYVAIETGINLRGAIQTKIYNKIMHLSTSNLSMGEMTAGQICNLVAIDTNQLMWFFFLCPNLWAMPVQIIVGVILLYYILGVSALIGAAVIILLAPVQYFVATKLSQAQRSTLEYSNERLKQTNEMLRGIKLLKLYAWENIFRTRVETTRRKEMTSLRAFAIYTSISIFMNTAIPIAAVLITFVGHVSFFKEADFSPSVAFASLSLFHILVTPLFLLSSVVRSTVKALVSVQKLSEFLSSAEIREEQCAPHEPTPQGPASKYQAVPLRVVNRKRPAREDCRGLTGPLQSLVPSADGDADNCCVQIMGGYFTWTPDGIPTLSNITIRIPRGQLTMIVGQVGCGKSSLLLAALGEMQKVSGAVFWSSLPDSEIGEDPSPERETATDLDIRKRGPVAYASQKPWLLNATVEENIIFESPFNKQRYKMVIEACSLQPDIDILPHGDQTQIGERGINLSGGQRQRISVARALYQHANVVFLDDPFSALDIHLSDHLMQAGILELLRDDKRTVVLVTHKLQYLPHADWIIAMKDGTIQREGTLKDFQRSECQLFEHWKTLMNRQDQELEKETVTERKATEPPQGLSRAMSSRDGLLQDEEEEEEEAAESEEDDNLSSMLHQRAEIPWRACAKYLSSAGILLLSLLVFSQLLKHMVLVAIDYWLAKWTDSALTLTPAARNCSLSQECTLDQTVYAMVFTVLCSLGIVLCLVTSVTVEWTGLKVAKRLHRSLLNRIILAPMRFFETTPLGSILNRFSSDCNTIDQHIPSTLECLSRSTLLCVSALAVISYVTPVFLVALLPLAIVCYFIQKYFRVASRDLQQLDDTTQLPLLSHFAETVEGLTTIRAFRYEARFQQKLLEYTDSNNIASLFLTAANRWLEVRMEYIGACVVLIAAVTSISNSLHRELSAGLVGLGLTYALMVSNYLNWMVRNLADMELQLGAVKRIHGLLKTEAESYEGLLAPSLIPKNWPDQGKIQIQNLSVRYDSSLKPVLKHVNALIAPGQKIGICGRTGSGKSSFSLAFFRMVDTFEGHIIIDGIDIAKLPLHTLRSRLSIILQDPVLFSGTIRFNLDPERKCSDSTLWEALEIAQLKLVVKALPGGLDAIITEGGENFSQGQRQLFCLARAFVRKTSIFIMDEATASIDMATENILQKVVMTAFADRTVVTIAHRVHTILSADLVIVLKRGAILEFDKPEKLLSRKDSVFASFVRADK
Sequence of KATP-channels on pancreatic beta-cells (Q14654 whole entry partner): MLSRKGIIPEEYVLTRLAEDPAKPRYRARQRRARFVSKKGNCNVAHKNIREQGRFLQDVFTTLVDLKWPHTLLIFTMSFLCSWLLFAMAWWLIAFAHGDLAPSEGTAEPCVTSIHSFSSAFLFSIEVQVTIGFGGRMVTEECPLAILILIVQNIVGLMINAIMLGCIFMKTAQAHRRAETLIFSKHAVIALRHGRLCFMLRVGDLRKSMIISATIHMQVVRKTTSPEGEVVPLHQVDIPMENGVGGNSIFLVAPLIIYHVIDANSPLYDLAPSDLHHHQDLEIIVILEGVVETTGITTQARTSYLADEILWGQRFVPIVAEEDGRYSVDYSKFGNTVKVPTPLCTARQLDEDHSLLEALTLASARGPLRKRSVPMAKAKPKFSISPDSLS

For `CC1=Nc2ccc(Cl)cc2S(=O)(=O)N1` [diazoxide, 7-chloro-3-methyl-2H-1,2,4-benzothiadiazine 1,1-dioxide], the insulin release is listed as “inhibit insulin release”.

System: BB-rats
Conditions: cited from earlier work

In the case of `CC1=Nc2ccc(Cl)cc2S(=O)(=O)N1` [diazoxide, 7-chloro-3-methyl-2H-1,2,4-benzothiadiazine 1,1-dioxide], the onset of diabetes is given as “delay the onset of diabetes”.

System: obese zucker rats
Conditions: cited from earlier work

For `CC1=Nc2ccc(Cl)cc2S(=O)(=O)N1` [diazoxide, 7-chloro-3-methyl-2H-1,2,4-benzothiadiazine 1,1-dioxide], the glucose tolerance is given as “improve glucose tolerance”.

In the case of `CC1=Nc2ccc(Cl)cc2S(=O)(=O)N1` [diazoxide, 7-chloro-3-methyl-2H-1,2,4-benzothiadiazine 1,1-dioxide], the insulin receptor binding is listed as “increase insulin receptor binding”.

For `CC1=Nc2ccc(Cl)cc2S(=O)(=O)N1` [diazoxide, 7-chloro-3-methyl-2H-1,2,4-benzothiadiazine 1,1-dioxide], the insulin secretion is listed as “decrease insulin secretion”.

In the case of `CC1=Nc2ccc(Cl)cc2S(=O)(=O)N1` [diazoxide, 7-chloro-3-methyl-2H-1,2,4-benzothiadiazine 1,1-dioxide], the weight gain is given as “decrease weight gain”.
